The values below come from US9351956B1, “Pharmaceutical composition comprising an enantiomer of lipoamide and derivatives thereof and method of use” (GeroNova Research Inc., priority 2012, dated 2016).

The structures appear in SMILES notation.

Type in all cases: cell-based
Holding throughout (settings): HepG2 cells, 0.2 mM, 8 hours, 5.5 mM glucose

The subject of one assay is C/EBP. Put plainly: dual-luciferase reporter array, C/EBP. As to the method: (§1) Nine test compounds were synthesized and characterized. The effects of R, S and RS forms of LA, LAM and LAP on multiple signaling pathways were studied in HepG2 cells at 0.2 mM for 8 hours (5.5 mM glucose) using a dual-luciferase reporter array. The reporter is a mixture of Firefly Luciferase gene construct under control of an inducible transcription factor-responsive promoter and an internal control plasmid constitutively expressing Renilla luciferase gene. Each inducible construct monitors changes in the activity of a select transcription factor serving as a marker for activation or suppression of a specific signaling pathway.

The test system of a further assay is PI3K/AKT. Put plainly: dual-luciferase reporter array, FOXO reporter as inverse marker for PI3K/AKT. The procedure:
as §1
This above studies identified previously unknown enantioselective and non-enantioselective pathways differentially affected by LA and amide derivatives. In some cases the racemic compounds activate pathways not activated by either enantiomer. […] The heavy metal response pathway was similarly affected by all nine compounds, which lowered values below control levels. […] The greatest increase in activity of a pathway by all compounds was activation of the Antioxidant Response Element (ARE) but the magnitude varied widely by compound. […] Activation of FOXO transcription factors is repressed by AKT phosphorylation and thus functions as an inverse marker for PI3K/AKT activity, such that low pathway activity increases the magnitude of the FOXO reporter.
In general terms: In a reporter assay the amount or activity of a reporter protein is the signal.

Assay [1] relates to retinoic acid response element (RAR). Put plainly: dual-luciferase reporter array, RAR. As to the method: as §1
The test system of assay [2] is Antioxidant Response Element (ARE). Put plainly: dual-luciferase reporter array, ARE. As to the method:
as §1

Assay [3] deals with progesterone receptor (PR). Put plainly: dual-luciferase reporter array, PR. As to the method:
as §1

Assay [4] has as its system peroxisome proliferator-activated receptor (PPAR). Put plainly: dual-luciferase reporter array, PPAR. As to the method:
as §1

In the next assay the test system is heat shock factor (HSF). Put plainly: dual-luciferase reporter array, HSF. The procedure: as §1
Assay [5] has as its system xenobiotic response element (XRE). Put plainly: dual-luciferase reporter array, XRE. As to the method: as §1

Take `O=C(O)CCCC[C@@H]1CCSS1` [RLA, R-(+)-lipoic acid]: in the assay with C/EBP, the C/EBP activation entry is listed as “selectively activates”. The “PI3K/AKT activation (inverse of FOXO reporter response)” value with PI3K/AKT was “strongly activates”. Moreover, in assay [1], the RAR activation result is “selectively activates”.

For the compound `NC(=O)CCCC[C@@H]1CCSS1` [RLAM, R-(+)-lipoamide], the “ARE response (activation)” value in assay [2] is recorded as “strongest ARE response”. Also, the PR activation entry in assay [3] was “selectively activates”.

Turning to `O=C(O)CCCC[C@H]1CCSS1` [SLA, S-(−)-lipoic acid], the “PI3K/AKT activation (inverse of FOXO reporter response)” value in the assay with PI3K/AKT is listed as “minimal”. Moreover, the PPAR activity result in assay [4] was “lowered”.

On to `NC(=O)CCCC[C@H]1CCSS1` [SLAM, S-(−)-lipoamide], for which the “ARE response (activation)” value in assay [2] is “activated”. Besides, in the assay with heat shock factor (HSF), the HSF activation result is “activated”. For the same compound, the XRE induction result in assay [5] is “induced”.

In the case of `CN(C)CCNC(=O)CCCC[C@H]1CCSS1` [SLAP], the XRE induction result in assay [5] is reported as “induced”.
